Measured values taken from ChEMBL document CHEMBL4396970, “Benzothiazole-based compounds as potent endothelial lipase inhibitors” (Bioorg Med Chem Lett, 2019).

The molecules below were run against T1, Endothelial lipase (Homo sapiens, UniProt Q9Y5X9) (assay: Inhibition of endothelial lipase in human serum).
T1 sequence (Q9Y5X9 whole entry): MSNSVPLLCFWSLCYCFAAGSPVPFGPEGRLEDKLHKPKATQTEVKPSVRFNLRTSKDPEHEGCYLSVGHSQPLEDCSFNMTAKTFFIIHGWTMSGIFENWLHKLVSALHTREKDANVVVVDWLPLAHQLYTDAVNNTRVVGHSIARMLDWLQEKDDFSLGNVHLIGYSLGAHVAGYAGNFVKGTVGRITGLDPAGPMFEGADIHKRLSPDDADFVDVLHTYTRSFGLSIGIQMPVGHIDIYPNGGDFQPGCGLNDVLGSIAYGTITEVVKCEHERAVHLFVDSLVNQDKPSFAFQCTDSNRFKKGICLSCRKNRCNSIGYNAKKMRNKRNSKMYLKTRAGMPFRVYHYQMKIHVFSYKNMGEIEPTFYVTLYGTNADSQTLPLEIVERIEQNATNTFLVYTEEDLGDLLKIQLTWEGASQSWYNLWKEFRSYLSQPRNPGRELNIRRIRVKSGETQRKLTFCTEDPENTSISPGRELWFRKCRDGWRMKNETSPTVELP
Type: cell-free

Structure (SMILES)	IC50
N#CC(C(=O)NCC(=O)NC1CC1)c1nc2ccc(-c3ccc(NC(=O)OCc4ccccc4)cc3)cc2s1 (racemic)	80 nM
CN1CCN(C(=O)c2ccc(-c3ccc4nc(C(C#N)C(=O)NCC(=O)NC5CCC5)sc4c3)cc2)CC1 (racemic)	200 nM
N#CC(C(=O)NCC(=O)N1CCCC1)c1nc2ccc(-c3ccccc3)cc2s1 (racemic)	1100 nM

Results, then the molecule that gave them:

IC50	Structure (SMILES)
170 nM	N#CC(C(=O)NCC(=O)NC1CC1)c1nc2ccc(-c3ccc(C(=O)N4CCC4)cc3)cc2s1 (racemic)
140 nM	N#CC(C(=O)NCC(=O)NC1CC1)c1nc2ccc(-c3cccc(C(=O)N4CCCCC4)c3)cc2s1 (racemic)
70 nM	CN(C)C(=O)c1ccc(-c2ccc3nc(C(C#N)C(=O)NCC(=O)NC4CC4)sc3c2)cc1F (racemic)
230 nM	N#CC(C(=O)NCC(=O)NC1CC1)c1nc2ccc(-c3ccc(F)nc3)cc2s1 (racemic)

The molecules below were run against T1, Endothelial lipase (assay: Inhibition of endothelial lipase (unknown origin)).

IC50	Structure (SMILES)
1 nM	N#CC(C(=O)NCC(=O)NC1CC1)c1nc2ccc(-c3ccc(NC(=O)OCc4ccccc4)cc3)cc2s1 (racemic)
3100 nM	CN1CCN(C(=O)c2ccc(-c3ccc4nc(C(C#N)C(=O)NCC(=O)NC5CCC5)sc4c3)cc2)CC1 (racemic)
1300 nM	N#CC(C(=O)NCC(=O)N1CCCC1)c1nc2ccc(-c3ccccc3)cc2s1 (racemic)
170 nM	N#CC(C(=O)NCC(=O)NC1CC1)c1nc2ccc(-c3ccc(F)nc3)cc2s1 (racemic)

These molecules were tested against T2, Hepatic triacylglycerol lipase (Homo sapiens, UniProt P11150) (assay: Inhibition of hepatic lipase (unknown origin)).
T2 sequence (P11150 whole entry): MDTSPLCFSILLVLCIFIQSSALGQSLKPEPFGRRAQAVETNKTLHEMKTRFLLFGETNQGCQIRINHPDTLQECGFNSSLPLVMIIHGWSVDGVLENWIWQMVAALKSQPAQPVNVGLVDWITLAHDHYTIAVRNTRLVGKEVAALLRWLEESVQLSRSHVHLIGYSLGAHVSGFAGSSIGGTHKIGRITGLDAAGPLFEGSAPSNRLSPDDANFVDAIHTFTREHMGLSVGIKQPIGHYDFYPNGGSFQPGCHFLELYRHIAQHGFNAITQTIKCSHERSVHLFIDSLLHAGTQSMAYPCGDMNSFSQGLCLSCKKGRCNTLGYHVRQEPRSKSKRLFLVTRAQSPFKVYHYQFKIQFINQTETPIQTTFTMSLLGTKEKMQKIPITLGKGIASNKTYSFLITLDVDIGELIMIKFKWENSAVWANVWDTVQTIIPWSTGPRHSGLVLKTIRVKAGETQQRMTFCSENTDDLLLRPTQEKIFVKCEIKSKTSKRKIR

Structure (SMILES)	IC50
N#CC(C(=O)NCC(=O)NC1CC1)c1nc2ccc(-c3ccc(NC(=O)OCc4ccccc4)cc3)cc2s1 (racemic)	0.8 nM
CN1CCN(C(=O)c2ccc(-c3ccc4nc(C(C#N)C(=O)NCC(=O)NC5CCC5)sc4c3)cc2)CC1 (racemic)	490 nM
N#CC(C(=O)NCC(=O)N1CCCC1)c1nc2ccc(-c3ccccc3)cc2s1 (racemic)	250 nM

The next lines start with the values.

IC50	Structure (SMILES)
170 nM	N#CC(C(=O)NCC(=O)NC1CC1)c1nc2ccc(-c3ccc(C(=O)N4CCC4)cc3)cc2s1 (racemic)
35 nM	N#CC(C(=O)NCC(=O)NC1CC1)c1nc2ccc(-c3cccc(C(=O)N4CCCCC4)c3)cc2s1 (racemic)
1100 nM	CN(C)C(=O)c1ccc(-c2ccc3nc(C(C#N)C(=O)NCC(=O)NC4CC4)sc3c2)cc1F (racemic)
500 nM	N#CC(C(=O)NCC(=O)NC1CC1)c1nc2ccc(-c3ccc(F)nc3)cc2s1 (racemic)
